Patent publication US6613757B1, “COMBINATION OF PROSTACYCLIN WITH AN ESTROGEN OR PROGESTIN FOR THE PREVENTION AND TREATMENT OF ATHEROSCLEROTIC VASCULAR DISEASE INCLUDING PREECLAMPSIA AND FOR THE TREATMENT OF HYPERTENSION, AND FOR HORMONE REPLACEMENT THERAPY” (Board of Regents, The University of Texas System, priority 1994, dated 2003)
Entries after “also recorded” stand apart in the source; their conditions may differ.

What was measured:
[1] = tested on: preeclamptic rats (L-NAME); test: Blood pressure in L-NAME-induced preeclampsia model, pregnant and postpartum rats; format: in vivo, rat; settings: for post-partum increase in blood pressure: R 5020 5 mg/animal/day; for blood pressure in the postpartum period: preeclamptic rats, L-NAME 25 mg/animal/day s.c. infusion plus cicaprost
Method: These symptoms are related to the decrease in vascular resistance and placental perfusion. […] Preeclampsia was induced with an nitric oxide inhibitor L-NAME (25 mg/animal/day, s.c. infusion).

pregnant guinea pigs = test: Inhibition of nitric oxide synthesis during pregnancy in guinea pigs; format: in vivo, guinea pig; settings: unreported studies
Description: There is also evidence that prostacyclin production is decreased in preeclampsia. In a normal pregnancy there is an approximately 5-10-fold increase in prostacyclin production compared to the non-pregnant state (Goodman 1982, Walsh 1985, Fitzgerald 1,987). In contrast, there is a decreased production of prostacyclin in maternal, placental and umbilical cord vessels and in placental cotyledons (Remuzzi 1980, […] 1984, Walsh 1985) in preeclampsia. An imbalance in the ratio of thromboxane A2 to prostacyclin in preeclampsia has been proposed as a major pathological mechanism in preeclampsia (Walsh 1988, Fitzgerald 1987, Friedman 1988). Other experimental studies (unreported) in pregnant rats and guinea pigs indicate that nitric oxide deficiency is the primary event in preeclampsia.

L-NAME-treated male rats = test: L-NAME-induced hypertension in male rats; format: in vivo, rat
Method: (§1) FIG. 2 provides further evidence that progesterone can induce mechanisms which compensate the L-NAME-produced hypertension. This study was performed in male rats, showing pregnancy is not essential for this effect.

cholesterol-fed rabbits = settings: cited from earlier work
[2] = in vivo; cited from earlier work
[3] = tested on: preeclamptic rats (L-NAME); test: Fetal weight and fetal mortality in L-NAME-treated pregnant rats; format: in vivo, rat; settings: iloprost plus L-NAME vs L-NAME-treated group
Description: The unexpected results of the studies described below indicate that the response of blood vessels to prostacyclins and subsequent blood pressure lowering effect is controlled by progesterone. […] These symptoms are related to the decrease in vascular resistance and placental perfusion. […] Thus, the condition of pregnancy and the progestin treatment highly increase the responsiveness of blood vessels to exogenous prostacyclin. The increased response of blood vessels results in the lowering of the effective dose of prostacyclin analogs and subsequently in the reduction of side effects.
as §1

[4] = tested on: microvascular arteriolar endothelium; settings: cited from earlier work
[5] = intravenous use; cited from earlier work
placental blood vessels = settings: in vitro; cited from earlier work
sheep = settings: infusion; cited from earlier work
humans = settings: infusion; cited from earlier work
[6] = tested on: women with severe preeclampsia; settings: cited from earlier work
[7] = tested on: cases of severe early-onset fetal growth retardation; settings: 2 cases, intravenous, 4 ng/kg/min; cited from earlier work

SMILES: COC(=O)[C@@H](N)CCCNC(=N)N[N+](=O)[O-] [L-NAME]
- signs and symptoms of preeclampsia (hypertension, proteinuria, fetal growth retardation) ([1]; pregnant rats): caused the classical symptoms hypertension, proteinuria and fetal growth retardation; also recorded: produces signs and symptoms of preeclampsia
- classical symptoms hypertension, proteinuria and fetal growth retardation (pregnant guinea pigs): caused the classical symptoms hypertension, proteinuria and fetal growth retardation

SMILES: CCC(=O)[C@@]1(C)CC[C@H]2[C@@H]3CCC4=CC(=O)CCC4=C3CC[C@@]21C [R 5020, promegestone]
- post-partum increase in blood pressure ([1]; iloprost plus L-NAME, FIG. 4): dramatically decrease the post-partum increase in blood pressure
- post-partum increase in blood pressure ([1]; iloprost plus L-NAME, FIG. 4, listed as R5020): restores the efficacy of iloprost/cicaprost to lower blood pressure
- blood pressure in the postpartum period ([1]; FIG. 1): lowers blood pressure; also recorded: restores the postpartum decrease in the efficacy of cicaprost to lower blood pressure
- blood pressure in the postpartum period ([1]; FIG. 1, listed as R5020): restores the efficacy of iloprost/cicaprost to lower blood pressure
- L-NAME-induced hypertension (L-NAME-treated male rats; male rats, 0.5 mg/animal/day s.c., FIG. 2): reduces the L-NAME-induced hypertension

SMILES: CCC#CC[C@H](C)[C@H](O)C#C[C@@H]1[C@H]2C/C(=C/COCC(=O)O)C[C@H]2C[C@H]1O [cicaprost]
- blood pressure during pregnancy (prepartum) ([1]; cicaprost plus L-NAME, progesterone levels high, FIG. 1): greater in late pregnancy; also recorded: a fall in blood pressure
- blood pressure postpartum ([1]; cicaprost plus L-NAME, progesterone levels low, FIG. 1): rapid increase in blood pressure; also recorded: an increase
- aortic atheromatous plaque formation (cholesterol-fed rabbits; oral, cholesterol-fed rabbits): reduced aortic atheromatous plaque formation
- hypercholesterolemia-induced impairment of endothelium-dependent relaxation (cholesterol-fed rabbits; oral, cholesterol-fed rabbits): partially prevented hypercholesterolemia-induced impairment of endothelium-dependent relaxation
- hypercholesterolemia-induced impairment of coronary vasodilatation (cholesterol-fed rabbits; oral, rabbits): beneficial effect on the hypercholesterolemia-induced impairment of coronary vasodilatation
- hypercholesterolemia-induced platelet and neutrophil hyperactivity (cholesterol-fed rabbits; rabbits): reduced hypercholesterolemia-induced platelet and neutrophil hyperactivity
- bioavailability [2]: high bioavailability
- duration of action [2]: prolonged duration of action

SMILES: CC#CCC(C)[C@H](O)/C=C/[C@@H]1[C@H]2C/C(=C/CCCC(=O)O)C[C@H]2C[C@H]1O (stereo partly shown) [iloprost]
- L-NAME-induced hypertension during pregnancy ([1]; iloprost plus L-NAME, progesterone levels high, FIG. 4): greater in late pregnancy; also recorded: fully reverses the L-NAME-induced hypertension
- L-NAME-induced fetal mortality ([3]; FIG. 5 lower panel): reduces the L-NAME-induced fetal mortality; also recorded: fetal mortality decreased
- L-NAME-induced fetal growth retardation (fetal weight) ([3]; FIG. 5 upper panel): partially reverses the L-NAME-induced fetal growth retardation; also recorded: fetal weight increased
- damage of microvascular arteriolar endothelium by cyclosporin [4]: protect microvascular arteriolar endothelium from damage by cyclosporin
- systemic blood pressure [5]: marked fall in systemic blood pressure

SMILES: CC(=O)[C@H]1CC[C@H]2[C@@H]3CCC4=CC(=O)CC[C@]4(C)[C@H]3CC[C@]12C [progesterone]
- blood pressure (L-NAME-treated male rats; L-NAME-treated male rats): partially lowers blood pressure

SMILES: CCCCC[C@H](O)/C=C/[C@@H]1[C@H]2C/C(=C/CCCC(=O)O)O[C@H]2C[C@H]1O [prostacyclin]
- relaxation of placental blood vessels (placental blood vessels): consistently relaxes placental blood vessels
- placental perfusion (sheep): did not result in the increase in placental perfusion; also recorded: a decrease of placental perfusion
- placental perfusion (humans): did not result in the increase in placental perfusion
- babies survived ([6]; 7 women, 4-8 ng/kg/min i.v.): 4/7
- fetal effects during treatment ([6]; 7 women, 4-8 ng/kg/min i.v.): Fetal bradycardia was observed; also recorded: two fetuses died during prostacyclin infusion
- blood pressure during prostacyclin infusion ([6]; 7 women, 4-8 ng/kg/min, 5 h to 11 days): rapid decrease in blood pressure
- uteroplacental blood flow ([6]; steal phenomenon): decreased uteroplacental blood flow
- outcome of attempt to promote fetal growth [7]: intrauterine death in each case
- duration of action [2]: short duration of action
- systemic blood pressure [5]: marked fall in systemic blood pressure
